The values that follow come from the NIST ThermoML archive (doi:10.1016/j.jct.2005.03.003).

Numbers after ± are expanded uncertainties.

The conditions of data set [1]: Liquid; for mass density: 298.2 K, 101.33 kPa.
Data set [2] can be described thus: refractive index (Na D-line) (dimensionless). Particulars: 298.2 K; 101.33 kPa; Liquid; Standard Abbe refractometry.

Broadly, the mass density is mass per unit of volume. What is called refractive index is a measure of how strongly the sample bends light. For the compound `CC(=O)O` [acetic acid], the mass density in data set [1] is 1049.44 ± 3 kg/m3. Moreover, in data set [1] (Fischer boiling point apparatus:FP), the Normal boiling temperature was found to be 118.1 ± 0.2 °C. Moreover, the refractive index in data set [2] is 1.3715 ± 0.0012.

In the case of `CCCCOC(=O)c1ccccc1C(=O)OCCCC` [dibutyl phthalate], the mass density in data set [1] (Vibrating tube method) worked out at 1050.13 ± 1.4 kg/m3. Further, the Normal boiling temperature in data set [1] (Fischer boiling point apparatus) is 340.1 ± 0.2 °C. Also, the refractive index in data set [2] is 1.4906 ± 0.0013.
